Tested on: p53 signaling pathway in MT373 tumors
Experiment: MT373 syngeneic sarcoma model: mouse p53 signaling pathway profiling panel
Type: in vivo

Q: `CCn1c(C#CCNc2ccccc2)cc2cc(CNC3CCN(C)CC3)ccc21` [Compound 1, 1-Anilino-3-{1-ethyl-5-[(1-methyl-4-piperidylamino)methyl]-1H-indol-2-yl}-2-propyne] was tested. Which “Casp2 fold increase or percent reduction vs vehicle control” value (75 mg/kg BIDx1, 24 h) did it give?
A: 16.13 fold or %

Q: And the “Ccnb1 fold increase or percent reduction vs vehicle control” value (75 mg/kg BIDx1, 24 h)?
A: 65.51 fold or %

Q: And the “Ccne1 fold increase or percent reduction vs vehicle control” value (75 mg/kg BIDx1, 24 h)?
A: 29.87 fold or %

Q: And the “Ccng1 fold increase or percent reduction vs vehicle control” value (75 mg/kg BIDx1, 24 h)?
A: 4.63 fold or %

Q: And the “Ccnh fold increase or percent reduction vs vehicle control” value (75 mg/kg BIDx1, 24 h)?
A: 3.31 fold or %

Q: What about the “Cdc25a fold increase or percent reduction vs vehicle control” value (75 mg/kg BIDx1, 24 h) of the same molecule?
A: 34.15 fold or %

Q: What about the “Cdk1 fold increase or percent reduction vs vehicle control” value (75 mg/kg BIDx1, 24 h) of the same molecule?
A: 59.92 fold or %

Q: What about the “Cdk4 fold increase or percent reduction vs vehicle control” value (75 mg/kg BIDx1, 24 h) of the same molecule?
A: 40.50 fold or %

Q: What about the “Cdkn1a fold increase or percent reduction vs vehicle control” value (75 mg/kg BIDx1, 24 h) of the same molecule?
A: 5.16 fold or %

Q: And the “Cdkn2a fold increase or percent reduction vs vehicle control” value (75 mg/kg BIDx1, 24 h)?
A: 16.83 fold or %

Q: And the “Chek1 fold increase or percent reduction vs vehicle control” value (75 mg/kg BIDx1, 24 h)?
A: 52.36 fold or %

Q: And the “Cradd fold increase or percent reduction vs vehicle control” value (75 mg/kg BIDx1, 24 h)?
A: 5.90 fold or %

Q: And the “Cul9 fold increase or percent reduction vs vehicle control” value (75 mg/kg BIDx1, 24 h)?
A: 1.58 fold or %

Q: And the “Dapk1 fold increase or percent reduction vs vehicle control” value (75 mg/kg BIDx1, 24 h)?
A: 1.19 fold or %

Q: And the “Dnmt1 fold increase or percent reduction vs vehicle control” value (75 mg/kg BIDx1, 24 h)?
A: 17.60 fold or %

Q: And the “E2f1 fold increase or percent reduction vs vehicle control” value (75 mg/kg BIDx1, 24 h)?
A: 10.67 fold or %

Q: What about the “E2f3 fold increase or percent reduction vs vehicle control” value (75 mg/kg BIDx1, 24 h) of the same molecule?
A: 27.77 fold or %

Q: What about the “Egfr fold increase or percent reduction vs vehicle control” value (75 mg/kg BIDx1, 24 h) of the same molecule?
A: 28.18 fold or %

Q: What about the “Egr1 fold increase or percent reduction vs vehicle control” value (75 mg/kg BIDx1, 24 h) of the same molecule?
A: 64.73 fold or %

Q: And the “Ep300 fold increase or percent reduction vs vehicle control” value (75 mg/kg BIDx1, 24 h)?
A: 3.09 fold or %

Q: What about the “Ercc1 fold increase or percent reduction vs vehicle control” value (75 mg/kg BIDx1, 24 h) of the same molecule?
A: 18.66 fold or %

Q: What about the “Esr1 fold increase or percent reduction vs vehicle control” value (75 mg/kg BIDx1, 24 h) of the same molecule?
A: 1.26 fold or %

Q: What about the “Fadd fold increase or percent reduction vs vehicle control” value (75 mg/kg BIDx1, 24 h) of the same molecule?
A: 5.60 fold or %

Q: What about the “Fas fold increase or percent reduction vs vehicle control” value (75 mg/kg BIDx1, 24 h) of the same molecule?
A: 1.45 fold or %

Q: What about the “Fasl fold increase or percent reduction vs vehicle control” value (75 mg/kg BIDx1, 24 h) of the same molecule?
A: 10.36 fold or %

Q: And the “Foxo3 fold increase or percent reduction vs vehicle control” value (75 mg/kg BIDx1, 24 h)?
A: 3.58 fold or %

Q: What about the “Gadd45a fold increase or percent reduction vs vehicle control” value (75 mg/kg BIDx1, 24 h) of the same molecule?
A: 19.41 fold or %

Q: And the “Hif1a fold increase or percent reduction vs vehicle control” value (75 mg/kg BIDx1, 24 h)?
A: 13.43 fold or %

Q: What about the “Il6 fold increase or percent reduction vs vehicle control” value (75 mg/kg BIDx1, 24 h) of the same molecule?
A: 70.78 fold or %

Q: What about the “Jun fold increase or percent reduction vs vehicle control” value (75 mg/kg BIDx1, 24 h) of the same molecule?
A: 38.98 fold or %

Q: What about the “Kras fold increase or percent reduction vs vehicle control” value (75 mg/kg BIDx1, 24 h) of the same molecule?
A: 13.87 fold or %

Q: And the “Lig4 fold increase or percent reduction vs vehicle control” value (75 mg/kg BIDx1, 24 h)?
A: 1.17. fold or %

Q: And the “Mdm2 fold increase or percent reduction vs vehicle control” value (75 mg/kg BIDx1, 24 h)?
A: 2.76 fold or %

Q: What about the “Mdm4 fold increase or percent reduction vs vehicle control” value (75 mg/kg BIDx1, 24 h) of the same molecule?
A: 1.07 fold or %

Q: What about the “Mel1 fold increase or percent reduction vs vehicle control” value (75 mg/kg BIDx1, 24 h) of the same molecule?
A: 15.14 fold or %

Q: What about the “Mlh1 fold increase or percent reduction vs vehicle control” value (75 mg/kg BIDx1, 24 h) of the same molecule?
A: 9.12 fold or %

Q: And the “Msh2 fold increase or percent reduction vs vehicle control” value (75 mg/kg BIDx1, 24 h)?
A: 29.40 fold or %

Q: What about the “Myod1 fold increase or percent reduction vs vehicle control” value (75 mg/kg BIDx1, 24 h) of the same molecule?
A: 3.54 fold or %

Q: And the “Nf1 fold increase or percent reduction vs vehicle control” value (75 mg/kg BIDx1, 24 h)?
A: 16.46 fold or %

Q: And the “Nfkb1 fold increase or percent reduction vs vehicle control” value (75 mg/kg BIDx1, 24 h)?
A: 15.21 fold or %

Q: And the “Pcna fold increase or percent reduction vs vehicle control” value (75 mg/kg BIDx1, 24 h)?
A: 43.21 fold or %

Q: And the “Pmaip1 fold increase or percent reduction vs vehicle control” value (75 mg/kg BIDx1, 24 h)?
A: 3.81 fold or %

Q: What about the “Ppm1d fold increase or percent reduction vs vehicle control” value (75 mg/kg BIDx1, 24 h) of the same molecule?
A: 1.26 fold or %

Q: And the “Prc1 fold increase or percent reduction vs vehicle control” value (75 mg/kg BIDx1, 24 h)?
A: 26.03 fold or %

Q: What about the “Prkca fold increase or percent reduction vs vehicle control” value (75 mg/kg BIDx1, 24 h) of the same molecule?
A: 16.45 fold or %

Q: And the “Pten fold increase or percent reduction vs vehicle control” value (75 mg/kg BIDx1, 24 h)?
A: 1.18 fold or %

Q: What about the “Pttg1 fold increase or percent reduction vs vehicle control” value (75 mg/kg BIDx1, 24 h) of the same molecule?
A: 1.07 fold or %

Q: And the “Rb1 fold increase or percent reduction vs vehicle control” value (75 mg/kg BIDx1, 24 h)?
A: 1.14 fold or %

Q: And the “Rela fold increase or percent reduction vs vehicle control” value (75 mg/kg BIDx1, 24 h)?
A: 32.18 fold or %

Q: And the “Rprm fold increase or percent reduction vs vehicle control” value (75 mg/kg BIDx1, 24 h)?
A: 1.77 fold or %

Q: What about the “Serpinb5 fold increase or percent reduction vs vehicle control” value (75 mg/kg BIDx1, 24 h) of the same molecule?
A: 1.20 fold or %

Q: And the “Sesn2 fold increase or percent reduction vs vehicle control” value (75 mg/kg BIDx1, 24 h)?
A: 2.05 fold or %

Q: What about the “Sfn fold increase or percent reduction vs vehicle control” value (75 mg/kg BIDx1, 24 h) of the same molecule?
A: 15.25 fold or %

Q: What about the “Sirt1 fold increase or percent reduction vs vehicle control” value (75 mg/kg BIDx1, 24 h) of the same molecule?
A: 6.13 fold or %

Q: What about the “Stat1 fold increase or percent reduction vs vehicle control” value (75 mg/kg BIDx1, 24 h) of the same molecule?
A: 1.08 fold or %

Q: What about the “Tnf fold increase or percent reduction vs vehicle control” value (75 mg/kg BIDx1, 24 h) of the same molecule?
A: 24.76 fold or %

Q: What about the “Traf1 fold increase or percent reduction vs vehicle control” value (75 mg/kg BIDx1, 24 h) of the same molecule?
A: 1.06 fold or %

Q: And the “Trp53bp2 fold increase or percent reduction vs vehicle control” value (75 mg/kg BIDx1, 24 h)?
A: 5.61 fold or %

Q: What about the “Trp53 fold increase or percent reduction vs vehicle control” value (75 mg/kg BIDx1, 24 h) of the same molecule?
A: 18.16 fold or %

Q: And the “Apex1 fold increase or percent reduction vs vehicle control” value (75 mg/kg BIDx1, 48 h)?
A: 21.30 fold or %

Q: What about the “Atm fold increase or percent reduction vs vehicle control” value (75 mg/kg BIDx1, 48 h) of the same molecule?
A: 18.31 fold or %

Q: And the “Atr fold increase or percent reduction vs vehicle control” value (75 mg/kg BIDx1, 48 h)?
A: 14.07 fold or %

Q: And the “Bag1 fold increase or percent reduction vs vehicle control” value (75 mg/kg BIDx1, 48 h)?
A: 42.29 fold or %

Q: And the “Bax fold increase or percent reduction vs vehicle control” value (75 mg/kg BIDx1, 48 h)?
A: 23.39 fold or %

Q: What about the “Bbc3 fold increase or percent reduction vs vehicle control” value (75 mg/kg BIDx1, 48 h) of the same molecule?
A: 1.32 fold or %

Q: And the “Bid fold increase or percent reduction vs vehicle control” value (75 mg/kg BIDx1, 48 h)?
A: 1.21 fold or %

Q: What about the “Birc5 fold increase or percent reduction vs vehicle control” value (75 mg/kg BIDx1, 48 h) of the same molecule?
A: 50.48 fold or %

Q: And the “Brca1 fold increase or percent reduction vs vehicle control” value (75 mg/kg BIDx1, 48 h)?
A: 31.46 fold or %

Q: And the “Brca2 fold increase or percent reduction vs vehicle control” value (75 mg/kg BIDx1, 48 h)?
A: 25.33 fold or %

Q: And the “Btg2 fold increase or percent reduction vs vehicle control” value (75 mg/kg BIDx1, 48 h)?
A: 11.23 fold or %

Q: What about the “Casp2 fold increase or percent reduction vs vehicle control” value (75 mg/kg BIDx1, 48 h) of the same molecule?
A: 9.89 fold or %

Q: What about the “Ccnb1 fold increase or percent reduction vs vehicle control” value (75 mg/kg BIDx1, 48 h) of the same molecule?
A: 59.73 fold or %

Q: What about the “Ccne1 fold increase or percent reduction vs vehicle control” value (75 mg/kg BIDx1, 48 h) of the same molecule?
A: 5.97 fold or %

Q: What about the “Ccng1 fold increase or percent reduction vs vehicle control” value (75 mg/kg BIDx1, 48 h) of the same molecule?
A: 9.36 fold or %

Q: And the “Ccnh fold increase or percent reduction vs vehicle control” value (75 mg/kg BIDx1, 48 h)?
A: 12.98 fold or %

Q: What about the “Cdc25a fold increase or percent reduction vs vehicle control” value (75 mg/kg BIDx1, 48 h) of the same molecule?
A: 16.12 fold or %

Q: What about the “Cdk1 fold increase or percent reduction vs vehicle control” value (75 mg/kg BIDx1, 48 h) of the same molecule?
A: 55.02 fold or %

Q: And the “Cdk4 fold increase or percent reduction vs vehicle control” value (75 mg/kg BIDx1, 48 h)?
A: 48.77 fold or %

Q: And the “Cdkn1a fold increase or percent reduction vs vehicle control” value (75 mg/kg BIDx1, 48 h)?
A: 1.03 fold or %

Q: And the “Cdkn2a fold increase or percent reduction vs vehicle control” value (75 mg/kg BIDx1, 48 h)?
A: 23.77 fold or %

Q: What about the “Chek1 fold increase or percent reduction vs vehicle control” value (75 mg/kg BIDx1, 48 h) of the same molecule?
A: 37.45 fold or %

Q: What about the “Cradd fold increase or percent reduction vs vehicle control” value (75 mg/kg BIDx1, 48 h) of the same molecule?
A: 13.67 fold or %

Q: What about the “Cul9 fold increase or percent reduction vs vehicle control” value (75 mg/kg BIDx1, 48 h) of the same molecule?
A: 2.20 fold or %

Q: And the “Dapk1 fold increase or percent reduction vs vehicle control” value (75 mg/kg BIDx1, 48 h)?
A: 1.46 fold or %

From US20230049952A1, “METHODS AND COMPOUNDS FOR RESTORING MUTANT P53 FUNCTION” (PMV Pharmaceuticals, Inc., priority 2020, published 2023)
